# Key:
# [1] = Induction of adipocyte differentiation in mouse 3T3-L1 cells at 10 uM
# [2] = target: T1, Peroxisome proliferator-activated receptor gamma (Homo sapiens, UniProt P37231)
# T1 sequence (P37231 whole entry): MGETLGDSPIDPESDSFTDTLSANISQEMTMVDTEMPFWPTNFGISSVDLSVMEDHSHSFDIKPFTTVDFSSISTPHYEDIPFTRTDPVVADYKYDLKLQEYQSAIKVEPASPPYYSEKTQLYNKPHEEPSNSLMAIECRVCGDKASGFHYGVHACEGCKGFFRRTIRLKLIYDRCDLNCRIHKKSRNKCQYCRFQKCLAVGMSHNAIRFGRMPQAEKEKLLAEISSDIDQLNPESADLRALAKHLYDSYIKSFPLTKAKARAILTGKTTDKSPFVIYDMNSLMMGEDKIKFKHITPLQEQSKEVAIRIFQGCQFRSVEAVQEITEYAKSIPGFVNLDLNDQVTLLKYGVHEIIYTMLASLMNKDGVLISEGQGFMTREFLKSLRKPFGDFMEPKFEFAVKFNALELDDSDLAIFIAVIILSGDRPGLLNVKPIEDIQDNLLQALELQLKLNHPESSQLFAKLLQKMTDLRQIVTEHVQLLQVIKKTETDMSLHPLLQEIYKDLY
# Description: Activation of Gal4-tagged human PPARgamma expressed in CHO cells by luciferase reporter gene assay
EC50 [2] [nM],SMILES,Activity [1] [%]
3400,CCCc1nc2c(C)cc(-c3nc4ccccc4n3C)cc2n1Cc1ccc(-c2ccccc2C(=O)O)cc1,70
1900,CCCc1nc2ccccc2n1Cc1ccc(-c2ccccc2C(=O)O)cc1,67
,CCCc1nc2cc(Br)ccc2n1Cc1ccc(-c2ccccc2C(=O)O)cc1,103
470,CCCc1nc2ccc(Br)cc2n1Cc1ccc(-c2ccccc2C(=O)O)cc1,102
400,CCCc1nc2cc(Br)c(Br)cc2n1Cc1ccc(-c2ccccc2C(=O)O)cc1,74
2900,CCCc1nc2cc(C(O)c3ccccc3)ccc2n1Cc1ccc(-c2ccccc2C(=O)O)cc1 (stereo not given),100
3500,CCCc1nc2ccc(C(O)c3ccccc3)cc2n1Cc1ccc(-c2ccccc2C(=O)O)cc1 (stereo not given),88
,CCc1ccc(CCOc2ccc(CC3SC(=O)NC3=O)cc2)nc1 (stereo not given) [PIOGLITAZONE],100

SMILES,EC50 [2] [nM],Activity [1] [%]
CCCc1nc2cc(C(=O)c3ccccc3)ccc2n1Cc1ccc(-c2ccccc2C(=O)O)cc1,580,104
CCCc1nc2ccc(C(=O)c3ccccc3)cc2n1Cc1ccc(-c2ccccc2C(=O)O)cc1,620,97
CCCc1nc2cc3ccccc3cc2n1Cc1ccc(-c2ccccc2C(=O)O)cc1,260,105
